According to ChEMBL document CHEMBL1629461, “The novel benzopyran class of selective cyclooxygenase-2 inhibitors. Part 2: the second clinical candidate having a shorter and favorable human half-life” (Bioorg Med Chem Lett, 2010):
pIC50: −log10 of the molar value. Values belong to the compound of their own block, whether it stands above or below them.

Columns and labels:
[1] = target: Prostaglandin G/H synthase 1 (Homo sapiens, UniProt P23219)
[2] = organism: Rattus norvegicus; assay: animal or person; conditions: read-out: INH
[3] = tested on: Liver microsomes; assay: Metabolic stability in human liver microsomes assessed as compound remaining; assay type: ADME, Microsome
[4] = target: T1, Prostaglandin G/H synthase 2 (Homo sapiens, UniProt P35354)
T1 sequence (P35354 whole entry): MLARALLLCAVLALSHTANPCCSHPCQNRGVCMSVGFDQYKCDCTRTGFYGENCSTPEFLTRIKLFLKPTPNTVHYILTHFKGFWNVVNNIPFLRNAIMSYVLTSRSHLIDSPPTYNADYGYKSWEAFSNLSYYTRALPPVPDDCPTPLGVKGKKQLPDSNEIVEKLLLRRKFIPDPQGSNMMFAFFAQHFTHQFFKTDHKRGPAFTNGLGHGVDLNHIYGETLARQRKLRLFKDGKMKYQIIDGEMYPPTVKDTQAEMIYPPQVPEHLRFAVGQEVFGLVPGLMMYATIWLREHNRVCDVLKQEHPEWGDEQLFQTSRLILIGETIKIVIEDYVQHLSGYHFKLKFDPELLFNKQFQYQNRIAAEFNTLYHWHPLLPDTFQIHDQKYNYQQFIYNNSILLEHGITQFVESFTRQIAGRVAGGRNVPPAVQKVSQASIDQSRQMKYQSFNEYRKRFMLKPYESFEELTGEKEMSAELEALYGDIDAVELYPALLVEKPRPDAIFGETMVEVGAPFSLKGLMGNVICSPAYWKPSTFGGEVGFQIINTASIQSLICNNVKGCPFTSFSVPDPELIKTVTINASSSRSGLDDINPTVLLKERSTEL

[5] = tested on: Rattus norvegicus; assay: Antiinflammatory activity in rat air pouch model assessed as inhibition of carrageenan-induced paw edema; assay type: functional
[6] = organism: Rattus norvegicus; assay: Antiinflammatory activity in rat air pouch model assessed as inhibition of carrageenan-induced inflammatory hyperalgesia; assay type: functional
[7] = organism: Rattus norvegicus; assay: Antiarthritic activity in rat assessed as inhibition of adjuent-induced arthritic pain; assay type: functional
[8] = organism: Rattus norvegicus; assay: Antiinflammatory activity in rat air pouch model assessed as inhibition of carrageenan-induced PGE2 production; assay type: functional
[9] = Half life in rat; assay type: ADME, organism-based; conditions: in vivo
[10] = Half life in dog; assay type: ADME, organism-based, Canis lupus familiaris; conditions: in vivo
[11] = (§1) Half life in human; assay type: ADME, organism-based; conditions: in vivo
[12] = organism: Rattus norvegicus; assay: animal or person; conditions: read-out: INH; remark: listed apart in the source
[13] = tested on: Cynomolgus monkey; assay: Half life in cynomolgus monkey; assay type: ADME, organism-based, Macaca fascicularis; conditions: in vivo
[14] = organism: Homo sapiens; assay: as §1; assay type: ADME, organism-based; conditions: in vivo

Prostaglandin G/H synthase 1, sequence (P23219 whole entry): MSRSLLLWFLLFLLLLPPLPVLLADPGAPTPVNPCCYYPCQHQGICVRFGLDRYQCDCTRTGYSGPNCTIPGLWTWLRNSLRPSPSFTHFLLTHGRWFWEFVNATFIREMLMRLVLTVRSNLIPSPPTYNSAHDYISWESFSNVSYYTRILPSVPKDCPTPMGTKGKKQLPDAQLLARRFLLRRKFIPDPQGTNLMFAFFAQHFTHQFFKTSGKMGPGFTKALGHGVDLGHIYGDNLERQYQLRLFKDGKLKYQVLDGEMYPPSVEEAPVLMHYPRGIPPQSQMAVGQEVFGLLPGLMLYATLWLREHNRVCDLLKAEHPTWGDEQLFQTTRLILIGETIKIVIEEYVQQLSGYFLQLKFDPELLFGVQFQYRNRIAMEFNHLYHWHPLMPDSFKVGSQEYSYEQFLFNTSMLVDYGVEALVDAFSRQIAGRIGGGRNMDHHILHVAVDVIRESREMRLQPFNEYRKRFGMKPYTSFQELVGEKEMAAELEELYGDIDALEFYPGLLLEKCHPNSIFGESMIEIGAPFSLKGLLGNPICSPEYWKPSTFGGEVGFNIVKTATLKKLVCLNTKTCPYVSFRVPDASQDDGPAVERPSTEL

SMILES: Nc1c(Cl)ccc2c1C=C(C(=O)O)C(C(F)(F)F)O2 (configuration not stated)
pIC50 [1]: < 4.00

SMILES: CCC(CC)COc1cc2c(cc1Cl)C=C(C(=O)O)C(C(F)(F)F)O2 (configuration not stated)
inhibition in vivo at 10 mg/kg [2]: 42%

SMILES: CCCc1cc2c(cc1Cl)C=C(C(=O)O)C(C(F)(F)F)O2 (configuration not stated)
inhibition in vivo at 10 mg/kg [2]: 49%

SMILES: CC(C)CSc1cc2c(cc1Cl)C=C(C(=O)O)C(C(F)(F)F)O2 (configuration not stated)
inhibition in vivo at 10 mg/kg [2]: 30%

SMILES: CC(C)CN(C)c1cc2c(cc1Cl)C=C(C(=O)O)C(C(F)(F)F)O2 (configuration not stated)
inhibition in vivo at 10 mg/kg [2]: 52%

SMILES: CC(C)CCc1cc2c(cc1Cl)C=C(C(=O)O)C(C(F)(F)F)O2 (configuration not stated)
inhibition in vivo at 10 mg/kg [2]: 51%

SMILES: CCOc1c(Cl)ccc2c1C=C(C(=O)O)C(C(F)(F)F)O2 (configuration not stated)
pIC50 [1]: < 4.00
pIC50 [4]: < 4.00

Second part, led by results:

Stability [3]: 51%
SMILES: CC(C)(C)c1cc2c(cc1Cl)C=C(C(=O)O)C(C(F)(F)F)O2 (configuration not stated)
inhibition in vivo at 10 mg/kg [2]: 100%

pIC50 [1]: > 6.85
pIC50 [4]: > 7.55
SMILES: CC(C)(C)Oc1c(Cl)cc2c(c1Cl)OC(C(F)(F)F)C(C(=O)O)=C2 (configuration not stated)

pIC50 [4]: > 7.55
SMILES: CC(C)COc1c(Cl)cc2c(c1Cl)O[C@@H](C(F)(F)F)C(C(=O)O)=C2

pIC50 [1]: > 6.85
pIC50 [4]: > 8.22
SMILES: O=C(O)C1=Cc2cc(Cl)c(OCC3CCCC3)c(Cl)c2OC1C(F)(F)F (configuration not stated)

half-life [9]: 4 h
half-life [10]: 18 h
half-life [11]: 34 h
SMILES: CC(C)(C)c1cc2c(cc1Cl)C=C(C(=O)O)[C@@H](C(F)(F)F)O2 [TIGEMOCOXIB]
ED50 [5]: 2.7 mg/kg
ED50 [6]: 4 mg/kg
ED50 [7]: 0.08 mg/kg
ED50 [8]: 0.43 mg/kg
inhibition in vivo at 2 mg/kg [12]: 100%

pIC50 [4]: > 7.68
SMILES: CCC(CC)COc1c(Cl)cc2c(c1Cl)OC(C(F)(F)F)C(C(=O)O)=C2 (configuration not stated)

pIC50 [4]: > 7.47
SMILES: O=C(O)C1=Cc2cc(Cl)c(OCC3CCCCC3)c(Cl)c2OC1C(F)(F)F (configuration not stated)

t1/2 [13]: 14.2 h
t1/2 [14]: 360 h
Stability [3]: 100%
SMILES: O=C(O)C1=Cc2cc(Cl)cc(Cl)c2O[C@@H]1C(F)(F)F
ED50 [5]: 0.54 mg/kg
ED50 [6]: 2.6 mg/kg
ED50 [7]: 0.03 mg/kg
ED50 [8]: 0.54 mg/kg
